# Measurements taken from PMC9157788, “Design, Synthesis, and Apoptosis-Promoting Effect Evaluation of Rhopaladins’ Analog 4-Arylidene-5-Oxopyrrolidine Derivatives” (Frontiers in Chemistry, 2022).
# Assays:
# SiHa cells = test: MTT cell viability assay, SiHa; format: cell-based; conditions: Homo sapiens, 48 h, read-out: Half inhibitory concentration (IC50), SiHa
# Procedure: (§1) HepG2 (human epidermoid hepatocellular carcinoma cell), 7402 (human epidermoid hepatocellular carcinoma cell), C-33A (human epidermoid cervical carcinoma cell), and HeLa (human epidermoid cervical adenocarcinoma cell) were incubated in Dulbecco’s modified Eagle’s medium (DMEM), which was purchased from Gibco (Grand Island, NY, United States). SiHa cells (human epidermoid cervical squamous cell carcinoma) were incubated in minimum essential medium (MEM, also from Gibco). CaSki (human epidermoid cervical carcinoma cell) and LO2 (human normal liver cell) were incubated in minimum essential medium (MEM, also from Gibco). All cells were maintained at 37°C in a humidified incubator with 5% carbon dioxide, and the media contained 10% fetal bovine serum (FBS, Corning, United States) and 1% penicillin–streptomycin antibiotic solution (Corning, United States). SiHa and CaSki were bought from the China Center for Type Culture Collection (CCTCC). The other five types of cancer cell lines were obtained from the Experiment Center of Medicine, Sinopharm Dongfeng Hospital, Hubei University of Medicine. The compounds were dissolved in dimethyl sulfoxide (DMSO, MP Biomedicals, United States), and cisplatin was purchased from Aladdin, Shanghai, China. The control (0 μM) group was treated with DMSO only in the same conditions, and the DMSO content in the medium was less than 0.1%.
# (§2) Cell viability was measured by a 3-(4,5-dimethylthiazol-2-yl)-2,5-diphenyltetrazolium bromide (MTT, MultiSciences, China) assay. The specific experimental steps referred to our previous research ([Zhu et al., 2020]). For each cell line, cells were digested and seeded in 96-well plates at a density of 1 × 10^3 cells/well. […] Then, the formed formazan crystals were dissolved in DMSO, and the plates were estimated in a […] microplate reader (BioTek Inc., Bio-Tek MQX200) at a wavelength of 490 nm. Optical density (OD) values were obtained, and the inhibition rate and IC50 of each compound on different cells were calculated by GraphPad Prism 8.0.1 software. […]
# C-33A cells = test: MTT cell viability assay, C-33A; format: cell-based; conditions: Homo sapiens, 48 h, read-out: Half inhibitory concentration (IC50), C-33A
# Procedure: as §1, §2
# HepG2 cells = test: Annexin V-FITC/PI flow cytometry apoptosis assay, HepG2; format: cell-based, human; conditions: 48 h; for total apoptosis rate: DMSO control 7.73 ± 2.18%
# Procedure: (§3) The effect of RPDPRH on apoptosis was performed using the Annexin V-FITC/PI Apoptosis kit (MultiSciences, China), following the manufacturer’s protocol. The cells were digested, dispersed, and plated into six-well plates with 2 × 10^4 cells/well and treated with RPDPRH (0, 6.25, 12.5, and 25 μM) at various concentrations for 48 h. Upon completion of the treatment, cells were harvested, washed with cool phosphate buffered solution (PBS, Gibco, United States) (0.01 M, pH=7.4), and re-suspended in a 500 μl binding buffer. Annexin V-FITC (5 μl) and PI (10 μl) were added into the cell suspension, and then, the suspension was incubated at room temperature away from light for 5 min. Cells were analyzed by using a flow cytometer (Agilent NovoCyte, China) immediately, and the results of the apoptosis were analyzed by FlowJo software.
# 7402 cells [1] = test: Annexin V-FITC/PI flow cytometry apoptosis assay, 7402; format: cell-based, human; conditions: 48 h; for total apoptosis rate: DMSO control 8.96 ± 3.05%
# Procedure: as §3
# LO2 cells = test: MTT cell viability assay, normal liver LO2; format: cell-based, human
# Procedure: as §1
# Cell viability was measured by a 3-(4,5-dimethylthiazol-2-yl)-2,5-diphenyltetrazolium bromide (MTT, MultiSciences, China) assay. The specific experimental steps referred to our previous research ([Zhu et al., 2020]). For each cell line, cells were digested and seeded in 96-well plates at a density of 1 × 10^3 cells/well. After 24 h of culture, the cells were adherent and treated with varying concentrations of RPDPRH (0, 3.125, 6.25, 12.5, 25, 50, and 100 μM). Cells without treatment were used as a solvent control group (0 μM, DMSO) and those with cisplatin treatment served as a positive control. After 48 h of treatment, MTT solution was added and incubated for 4 h. Then, the formed formazan crystals were dissolved in DMSO, and the plates were estimated in a […] microplate reader (BioTek Inc., Bio-Tek MQX200) at a wavelength of 490 nm. Optical density (OD) values were obtained, and the inhibition rate and IC50 of each compound on different cells were calculated by GraphPad Prism 8.0.1 software. Cell inhibition rate (%) = 1− [(OD experimental-OD blank)/(OD control-OD blank)] × 100%.
# 7402 cells [2] = test: Wound healing assay, 7402; format: cell-based, human; conditions: 48 h
# Procedure: The experimental procedures were performed according to conventional methods ([Kovaříková et al., 2014]). Hepatocarcinoma cells at the logarithmic growth stage were taken and inoculated into six-well plates with 2 × 10^4 cells/well. When the cell density is about 80%, the cell wound was scratched with pipette tips. Cells were then washed with PBS and added to the cell culture broth containing 1% serum with varying concentrations of RPDPRH (0 μM, 6.25, 12.5, and 25 μM) for 48 h. Pictures were taken at 0 and 48 h under a microscope (100×). Wound healing rate (%) = [(0 h scratch distance−48 h scratch distance)/0 h scratch distance] × 100%.
smiles,measurement,setting,value
"O=C1/C(=C/c2ccc(Cl)cc2)CC(/C=C/c2ccc(Cl)cc2)(C(=O)NC2CCCCC2)N1c1ccc(F)cc1 (stereo not drawn) [RPDPRH, (2E, 4E)-4-(4-chlorobenzylidene)-2-(4-chlorostyryl)-N-cyclohexyl-1-(4-fluorophenyl)-5-oxopyrrolidine-2-carboxamide]",melting point,,128 to 130 °C
same,IC50,SiHa cells,17.7 µM
same,IC50,C-33A cells,4.66 µM
same,early apoptotic cell (LR) rate,"HepG2 cells; HepG2, 6.25 μM",5.53%
same,late apoptotic (UR) rate,"HepG2 cells; HepG2, 6.25 μM",5.07%
same,total apoptosis rate,"HepG2 cells; HepG2, 6.25 μM",10.6 ± 1.49%
same,early apoptotic cell (LR) rate,"HepG2 cells; HepG2, 12.5 μM",14.90%
same,late apoptotic (UR) rate,"HepG2 cells; HepG2, 12.5 μM",21.00%
same,total apoptosis rate,"HepG2 cells; HepG2, 12.5 μM",35.90 ± 2.51%
same,early apoptotic cell (LR) rate,"HepG2 cells; HepG2, 25 μM",19.80%
same,late apoptotic (UR) rate,"HepG2 cells; HepG2, 25 μM",32.30%
same,total apoptosis rate,"HepG2 cells; HepG2, 25 μM",52.10 ± 4.49%
same,early apoptotic cell (LR) rate,"7402 cells [1]; 7402, 6.25 μM",4.37%
same,late apoptotic (UR) rate,"7402 cells [1]; 7402, 6.25 μM",9.34%
same,total apoptosis rate,"7402 cells [1]; 7402, 6.25 μM",13.71 ± 1.30%
same,early apoptotic cell (LR) rate,"7402 cells [1]; 7402, 12.5 μM",8.53%
same,late apoptotic (UR) rate,"7402 cells [1]; 7402, 12.5 μM",15.30%
same,early apoptotic cell (LR) rate,"7402 cells [1]; 7402, 25 μM",11.40%
same,late apoptotic (UR) rate,"7402 cells [1]; 7402, 25 μM",24.60%
same,total apoptosis rate,"7402 cells [1]; 7402, 25 μM",36.00 ± 2.67%
same,IC50,"LO2 cells; Homo sapiens, L02, normal liver LO2 cells, 48 h, read-out: Half inhibitory concentration (IC50), LO2",> 100 µM
same,toxicity to the normal hepatic LO2 cells,"LO2 cells; LO2 cells, insignificant inhibition at 100 µM (Table 1 footnote b)",no significant toxicity
same,wound healing rate,"7402 cells [2]; 7402, 25 μM, vs DMSO control, p < 0.01",reduced significantly
same,wound healing rate,"7402 cells [2]; 7402, 6.25, 12.5 and 25 μM",significantly reduced
